Data published in patent US11352358B2, “FXR agonist” (XUANZHU BIOPHARMACEUTICAL CO., LTD., priority 2017, dated 2022).

Tests used:
[1] = Liver microsome metabolism stability, rat liver microsome; type: in vitro ADME, SD rat; conditions: 0.5 mg protein/mL, test sample 1 μM, β-NADPH
Experimental: (§1) Test samples: the homemade compounds 1, 2, 4 and 5 of the present invention (for their chemical names and preparation methods, see the preparation example for each compound).
(§2) a mixed liver microsomes of SD rat and human both purchased from XenoTech, with batch Nos.: 1410271 (SD rat) and 1410013 (human) respectively, wherein the microsomal protein concentrations both were 20 mg mL^−1;
(§3) experimental promoter β-NADPH purchased from Roche (batch No.: 524F0231); and a phosphate buffer solution (pH 7.4) made in the lab.
(§4) An appropriate amount of the test sample powder was weighed accurately, and dissolved in an appropriate amount of dimethyl sulfoxide (DMSO) to a concentration of 1 mM; and the solution was then diluted by 20 times with methanol to yield a 50 μM working solution.
(§5) (1) According to the proportions in table 3 “Composition of the incubation system for liver microsome metabolism stability experiment” above, for each compound, 6 mL of PBS (100 mM), 0.6 mL of MgCl2 solution (20 mM) and 3.66 mL of H2O were made into a mixed solution 1 for the incubation system (not containing the microsomes, the test sample and β-NADPH).
(§6) (2) Liver microsomes (20 mg protein/mL) were taken from a refrigerator (−80° C.), and were placed on a thermostatic water bath oscillator (37° C.) and pre-incubated for 3 mins.
(§7) (3) For each compound, 1.88 mL of the mixed solution 1 for the incubation system was added with 55 μL of microsomes to obtain a mixed solution 2 for the incubation system (not containing the test sample and β-NADPH).
(§8) (4) Sample group (containing the microsomes and D-NADPH): 616 μL of mixed solution 2 for the incubation system was added with 14 μL of the test sample working solution (with a concentration of 50 μM), and with 70 μL of R-NADPH working solution (10 mM). The resulted solution was well mixed, and the resulted solution was then duplicated. The time points of sampling were at 0 min, 5th min, 10th min, 20th min, 30th min and 60th min.
(§9) (5) Control group (containing the microsomes, and water instead of D-NADPH): 264 μL of mixed solution 2 for the incubation system was added with 6 μL of the test sample working solution (50 μM), and with 30 μL of water. The resulted solution was well mixed, and the resulted solution was then duplicated. The time points of sampling were at 0 min and 60th min.
(§10) (6) 50 μL of sample was taken from an incubating sample tube at each predetermined time point, added to a terminating sample tube (containing 300 μL of cold terminator), and vortexed; and the reaction was terminated.
(§11) (7) after 10 mins of vortexing, the solution was centrifuged for 5 mins (12,000 rpm).
(§12) (8) 100 μL of supernatant was taken and added with 100 μL of water, and the mixture solution was thoroughly vortexed; and the solution was then analyzed by LC-MS/MS.
(§13) Percentages of residual contents were calculated according to the following formula.

BSEP mRNA in HepG2 cells = test: Relative expression of BSEP mRNA in HepG2 cells, EC50 (Experimental Example 3); type: cell-based; conditions: Homo sapiens, 24 hrs
Experimental: (§14) compounds of the present invention (for their chemical names and preparation methods, see the preparation example for each compound).
(§15) HepG2 cell: human liver cancer cell;
BSEP: bile salt export pump;
(§16) Control: compound 1-1B with a structure shown as follows, prepared according to a prior art method (for detailed information, see patent application WO2012087519A1).
(§17) Cells were digested with pancreatin and collected, and the concentration of the cells was determined; according to the counting result, the cells were resuspended to a density of 7.5×10^5 cells/mL; 2 mL of the cell suspension was inoculated in each well of a 6-well cell culture plate; and the culture plate was placed in an incubator and cultured under the conditions of 37° C. and 5% CO2 for 24 hrs.
(§18) The compounds were diluted to 3000, 1000, 200, 8, 1.6, 0.32, 0.0128, 0.00256 and 0.000512 μM with DMSO. Compound solutions of different concentrations obtained in the previous step were further diluted by 1,000 times with media to obtain working solutions, and a medium containing 0.1% of DMSO was adopted as a control group. The cell culture plate was taken out from the incubator, the medium was removed, and the working solutions and the control medium were added. The culture plate was placed back into the incubator and cultured under the conditions of 37° C. and 5% CO2 for 24 hrs. […]

SHP mRNA in HepG2 cells = test: Relative expression of SHP mRNA in HepG2 cells, EC50 (Experimental Example 3); type: cell-based; conditions: Homo sapiens, 24 hrs
Experimental: as §14, §15
SHP: small heterodimer partner;
as §16, §17, §18

[2] = Liver microsome metabolism stability, human liver microsome; type: in vitro ADME; conditions: 0.5 mg protein/mL, test sample 1 μM, β-NADPH
Experimental: as §1, §2, §3, §4, §5, §6, §7, §8, §9, §10, §11, §12, §13

SHP mRNA in AML12 cells = test: Relative expression of SHP mRNA in AML12 cells, EC50 (Experimental Example 4); type: cell-based; conditions: Mus musculus, 24 hrs
Experimental: as §14
AML12 cells: mouse liver cells.
as §16
as §17, with “of 7.5×10^4” for “of 7.5×10^5”, “cells/mL; 1” for “cells/mL; 2”, “a 12-well” for “a 6-well”
The compound were diluted to 1000, 200, 8, 1.6, 0.32, 0.128, 0.0256 and 0.00512 μM with DMSO. Compound solutions of different concentrations obtained in the previous step were further diluted by 1000 times with media to obtain working solutions, and a medium containing 0.1% of DMSO was adopted as a control group. The cell culture plate was taken out from the incubator, the medium was removed, and the working solutions and the control medium were added. The culture plate was placed back into the incubator and cultured under the conditions of 37° C. and 5% CO2 for 24 hrs.
after treatment for 24 hrs, the cell culture plate was taken out from the incubator, and the medium was removed from the plate; the cells were rinsed three times with pre-cooled (4° C.) PBS (phosphate buffer solution); and 200 μL of pancreatin (preheated to 37° C.) was added to each well, and the plate was then gently shaken such that the pancreatin could evenly cover the plate bottom. The culture plate was then placed back into the incubator and incubated until the cells were separated from the plate bottom. 1 mL of medium was added to terminate digestion. […]

[3] = tested on: CYP7A1 mRNA in HepG2 cells; test: Relative expression of CYP7A1 mRNA in HepG2 cells, IC50 (Experimental Example 3); type: cell-based; conditions: Homo sapiens, 24 hrs
Experimental: as §14, §15
CYP7A1: cholesterol 7-alpha hydroxylase;
as §16, §17, §18

In the case of `O=C(O)c1cc(F)c2nc(N3C[C@@H]4C[C@H]3C[C@H]4OCc3c(-c4ccccc4OC(F)(F)F)noc3C3CC3)sc2c1` [Compound 8, 2-((1S, 4S, 5R)-5-((5-cyclopropyl-3-(2-(trifluoromethoxy)phenyl)isoxazol-4-yl)methoxy)-2-azabicyclo[2.2.1]heptan-2-yl)-4-fluorobenzo[d]thiazole-6-formic acid], the “Residual content (%) after 60 minutes of incubation” value [1] is reported as 73%, the EC50 (BSEP mRNA in HepG2 cells) is reported as 0.35 nM and the EC50 (SHP mRNA in HepG2 cells) is reported as 0.09 nM. The “Residual content (%) after 60 minutes of incubation” value [2] was 96%, the EC50 (SHP mRNA in AML12 cells) was 0.89 nM and the IC50 [3] was 0.02 nM.
